In patent publication US10781232B2, “Sugar-dipeptide conjugates as flavor molecules” (NESTEC S.A., priority 2015, dated 2020):

Assays:
Format in all cases: in vivo, human
[1] = Sensory evaluation of tomato soups with and without the compound; details: compound added at 2 g/L; 6 g tomato base powder in 500 mL hot water
Description: 1-Deoxy-D-fructosyl-N-β-alanyl-L-histidine or alternatively 1-deoxy-D-fructosyl-N-β-alanyl-N-methyl-L-histidine was added at 2 g/L to the soups.

[2] = Sensory evaluation of chicken soups with and without the compound; details: compound added at 2 g/L; chicken base powder 6 g and 1 g monosodium glutamate in 500 mL hot water; 12 panelists
Description: Chicken soups were prepared by dissolving 6 g chicken base powder (detailed recipe shown in Table 3) and 1 g monosodium glutamate in 500 mL hot water. 1-Deoxy-D-fructosyl-N-β-alanyl-L-histidine or alternatively 1-deoxy-D-fructosyl-N-β-alanyl-N-methyl-L-histidine was added at 2 g/L.
The sensory evaluation was carried out by 12 panelists, previously screened for their sensory abilities. The panelists were asked to taste a set of 2 chicken soups, one containing no 1-deoxy-D-fructosyl-N-β-alanyl-L-histidine and one containing 1-deoxy-D-fructosyl-N-β-alanyl-L-histidine (2 g/L). If sensory differences were observed, the panelists were asked to describe them.
The same sensory evaluation was carried out with the chicken soup samples with and without containing 1-deoxy-D-fructosyl-N-β-alanyl-N-methyl-L-histidine at 2 g/L broth.

[3] = Taste threshold concentration in model broth, three-alternative test by sensory panel; details: thick-sour sensation and white-meaty oral impression, value in brackets
Description: The sensory tests were performed in a sensory panel room at 20-25° C. To avoid a retro-nasal aroma or taste impression, nose clips were used. The sensory panel consisted of 8 to 14 trained persons. The panel was trained to evaluate the taste of aqueous solutions (1 mL each) of the following standard taste compounds by using a triangle test: saccharose (50 mmol/L) and L-alanine (15 mmol/L), respectively, for sweet taste; lactic acid (20 mmol/L) for sour taste; NaCl (12 mmol/L) for salty taste; caffeine (1 mmol/L) and quinine hydrochloride (0.05 mmol/L), respectively, for bitter taste; sodium glutamate (8 mmol/L, pH 5.7) for umami taste; and tannin (0.05%) for astringency. The “white meaty” oral sensations was assessed in a model broth solution prepared from monosodium glutamate monohydrate (1.9 g/L), yeast extract (2.1 g/L), maltodextrin (6.375 g/L) and sodium chloride (2.9 g/L) in bottled water (pH 5.9).
The taste threshold concentration of β-alanyl-L-histidine was determined in the model broth using a three-alternative test with two blanks and one sample in ascending concentrations of β-alanyl-L-histidine.
This taste threshold value is considerably lower than the 22′700 μmol/L (5.3 mg/g) threshold level determined for the corresponding β-alanyl-L-histidine under the same experimental model system (see Example 5). […]

SMILES | sensory panel conclusion on flavour of tomato soup [1] | sensory panel conclusion on flavour of chicken soup [2] | taste threshold concentration [3]
Cn1cncc1C[C@H](NC(=O)CCNCC(=O)[C@@H](O)[C@H](O)[C@H](O)CO)C(=O)O [1-deoxy-D-fructosyl-N-β-alanyl-N-methyl-L-histidine] | increased significantly the savory, spicy notes | significantly increased the boiled chicken and meaty flavours | 
NCCC(=O)N[C@@H](Cc1c[nH]cn1)C(=O)O [β-alanyl-L-histidine] |  |  | 5.3 mg/g
